Data set [1] can be described thus: Compound was evaluated for its stability and enzymatic cleavage of dipeptide linker at pH 7, 37 degree C.; 5-6 h. The format is ADME.
The nature of data set [2]: Compound was evaluated for its stability and enzymatic cleavage of dipeptide linker at pH5, 37 degree C. The format is ADME. To be noted: pH 5.
Data set [3] is described as follows: Compound was evaluated for its stability and enzymatic cleavage of dipeptide linker at pH5, 37 degree C.; 5-6 h. The format is ADME. The settings on record: pH 5.
The subject of a further data set is L2987. The experiment in a line: Compound was evaluated for antigen specific activity in vitro L2987 cell line. The settings on record: Homo sapiens. The format is functional, cell-based.

Molecules are shown by their SMILES.

As a reminder, the half-life is how long it takes for the measured level to halve. For `CC[C@]1(OC(=O)OCc2ccc(NC(=O)[C@H](CCCCN)NC(=O)[C@H](Cc3ccccc3)NC(=O)CCCCCN3C(=O)CC(SCCO)C3=O)cc2)C(=O)OCc2c1cc1n(c2=O)Cc2cc3ccccc3nc2-1` (some centres undefined), the half-life in data set [1] was 6 h; in data set [2] it was less than 2 min; in data set [3] it was 6 h.

A word on the IC50: it is the concentration that inhibits the measured activity by half. The compound `CC[C@@]1(O)C(=O)OCc2c1cc1n(c2=O)Cc2cc3ccccc3nc2-1` [CAMPTOTHECIN] registered an IC50 in the data set with L2987 of 400 nM.
